Patent US12678501B2, “Modulating permeability of the blood cerebrospinal fluid barrier” (MEMORIAL SLOAN-KETTERING CANCER CENTER, priority 2015, dated 2026)

Legend:
MDA231-LeptoM cells = assay: Leptomeningeal metastasis model, MDA231-LeptoM cells into cisterna magna, BLI; assay type: in vivo, mouse; details: vs vehicle; for tumor growth within the leptomeninges (bioluminescent imaging): 2,000 MDA LeptoM cells into cisterna magna
Procedure: (§1) FIG. 11A-11C. C3aR as a therapeutic target in leptomeningeal metastasis. (A) 2,000 MDA231-LeptoM cells were introduced into the cisterna magna on day 0. Mice were treated with 10 mg/kg C3aR agonist (Ag), 10 mg/kg antagonist (Ant) or vehicle (Veh) I.P. twice weekly, tumor cell growth was monitored by BLI. n=10 mice per group. ****p<0.0001 (B) Survival analysis of mice treated in (A). (C) 2,000 MDA231-LeptoM, PC9-LeptoM, HCC1954-LeptoM or LCC-LeptoM cells were introduced into the CSF on day 0 and treated with Veh or Ant as described in (A). n=10 mice per group. BLI on day 14 is illustrated. *p<0.05; **p<0.01; *** p<0.001.
In light of the cancer cell dependence on C3 for growth within the leptomeningeal space, as well as C3aR's importance in maintenance of CP barrier function, we elected to assay C3aR antagonist as well as agonists in models of leptomeningeal metastasis. First, 2,000 MDA LeptoM were injected into the cisterna magna of recipient mice. Next, treatment with either vehicle, C3aR agonist or antagonist was initiated. Tumor growth was followed with bioluminescent imaging FIG. 11A.
(§2) Cells corresponding to each of these models were inoculated into the leptomeningeal space of recipient mice on Day 0. Daily systemic treatment with C3aR antagonist SB290157 began on Day 1. Bioluminescent imaging to quantitate tumor cell growth is shown for each of the models, FIG. 11C. […] In this approach, maintenance of B-CSF-B integrity inhibits cancer cell survival by inhibiting cancer cell access to plasma components, including protein, growth factors and metabolic intermediates.

HCC1954-LeptoM cells = assay: Leptomeningeal metastasis model, HCC1954-LeptoM cells, BLI; assay type: in vivo, mouse; details: systemic treatment from Day 1, BLI on day 14, vs vehicle
Procedure: as §1, §2

PC9-LeptoM cells = assay: Leptomeningeal metastasis model, PC9-LeptoM cells, BLI; assay type: in vivo, mouse; details: systemic treatment from Day 1, BLI on day 14, vs vehicle
Procedure: as §1, §2

LLC-LeptoM cells = assay: Leptomeningeal metastasis model, LLC-LeptoM cells, BLI; assay type: in vivo, mouse; details: systemic treatment from Day 1, BLI on day 14, vs vehicle
Procedure: as §1, §2

[1] = tested on: choroid plexus epithelial cells; assay: Tight junction staining (ZO-1, claudin immunofluorescence) of choroid plexus; details: mouse choroid plexus treated 2 hours prior to fixation
Text: (§3) FIG. 7A-7F. C3aR activation alters B-CSF-barrier integrity. (A) Immunofluorescence of mouse choroid plexus for C3aR (red) and the apically expressed SPAK (green). (B) Trans-epithelial resistance in response to C3a in an in vitro model of B-CSF-B employing human choroid plexus epithelial cells (HuCPEpi). (C) Conditioned medium from MDA231 Parental cells (green) supplemented with recombinant mouse C3a (open circles) or vehicle (closed circles) was used to treat the monolayer prior to TEER measurements. (D) Conditioned medium from MDA231 LeptoM cells was not treated with antibody (closed circle), or immunodepleted with anti-C3 (open circles) or IgG control (black squares) prior to TEER measurements. (E) Mice (C3aR^+/+ or ^−/−) were parenterally pretreated with recombinant mouse C3a or vehicle prior to intracardiac infusion of mixed fluorescently labeled dextrans. 30 minutes later, CSF and blood were sampled and analyzed by fluorimetry. In the bar graphs, for each dextran size, fluorescence in animals treated with rmC3a is represented by the bar on the right (vehicle represented by the bar on the left). […]
(§4) The passage of larger molecules was assessed through the use of fluorescently labeled Dextran passage in vivo. […] Thirty minutes after this treatment, CSF was sampled by cisternal tap, and presence of the derivatized dextran was assayed by fluorescence. […]

[2] = tested on: human choroid plexus epithelial cells (HuCPEpi); assay: Trans-epithelial electrical resistance (TEER) in in vitro model of B-CSF-B; assay type: cell-based; details: HuCPEpithelial cells on laminin-coated transwells, after addition of recombinant C3a
Text: FIG. 7A-7F. C3aR activation alters B-CSF-barrier integrity. (A) Immunofluorescence of mouse choroid plexus for C3aR (red) and the apically expressed SPAK (green). (B) Trans-epithelial resistance in response to C3a in an in vitro model of B-CSF-B employing human choroid plexus epithelial cells (HuCPEpi). (C) Conditioned medium from MDA231 Parental cells (green) supplemented with recombinant mouse C3a (open circles) or vehicle (closed circles) was used to treat the monolayer prior to TEER measurements. (D) Conditioned medium from MDA231 LeptoM cells was not treated with antibody (closed circle), or immunodepleted with anti-C3 (open circles) or IgG control (black squares) prior to TEER measurements. (E) Mice (C3aR^+/+ or ^−/−) were parenterally pretreated with recombinant mouse C3a or vehicle prior to intracardiac infusion of mixed fluorescently labeled dextrans. 30 minutes later, CSF and blood were sampled and analyzed by fluorimetry. In the bar graphs, for each dextran size, fluorescence in animals treated with rmC3a is represented by the bar on the right (vehicle represented by the bar on the left). (F) Mouse choroid plexus treated with C3a or vehicle for 2 hours prior to fixation and staining for ZO-1 and Claudin.
To address the hypothesis that C3aR might function similarly in the choroid plexus, we first established the presence of C3aR on choroid plexus epithelium (FIG. 7A). […]

C3aR = molecular target: T1, C3aR (Mus musculus, UniProt O09047); assay: Passage of fluorescently labeled dextrans from blood to CSF in vivo; details: dextrans of 40 kDa and smaller; CSF sampled 30 minutes after intracardiac dextran; C3aR-dependent (wild type vs knockout mice)
T1 construct: from tissue; host or cells: living mice (in vivo)
T1 sequence (O09047 1-477): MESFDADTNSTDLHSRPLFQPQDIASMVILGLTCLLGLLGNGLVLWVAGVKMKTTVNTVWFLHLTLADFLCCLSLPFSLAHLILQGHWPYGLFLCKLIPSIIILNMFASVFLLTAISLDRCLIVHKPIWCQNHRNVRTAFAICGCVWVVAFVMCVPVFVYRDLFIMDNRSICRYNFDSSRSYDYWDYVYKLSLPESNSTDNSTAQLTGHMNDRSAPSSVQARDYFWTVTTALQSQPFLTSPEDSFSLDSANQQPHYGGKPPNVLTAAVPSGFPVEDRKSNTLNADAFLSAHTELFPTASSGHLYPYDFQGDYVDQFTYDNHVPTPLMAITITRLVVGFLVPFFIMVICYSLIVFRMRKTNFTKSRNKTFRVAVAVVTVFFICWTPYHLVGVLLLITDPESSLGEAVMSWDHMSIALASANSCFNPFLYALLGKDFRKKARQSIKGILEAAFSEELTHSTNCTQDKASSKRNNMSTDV
Text: as §3, §4

[3] = Amphiregulin ELISA in CSF and plasma after parenteral C3a; assay type: in vivo; details: mouse models, after parenteral administration
Text: FIG. 10A-10D. C3 conditioned CSF by opening the blood-CSF-barrier. (A) Commercial dot-blot array was employed to measure proteins present in CSF of two patients without leptomeningeal metastasis, who later developed leptomeningeal metastasis. […] (B) LLC-LeptoM cells instilled into the cisterna magna of C3aR wild-type (^+/+) or knock-out (^−/−) syngenic mice. Tumor growth was monitored by BLI. (C) ELISA for amphiregulin of CSF from suspected of leptomeningeal metastasis. Final clinical diagnosis is indicated. (D) Mice were parenterally pretreated with recombinant mouse […] or vehicle (green) as described in FIG. 7E. Amphiregulin was measured by ELISA in CSF and plasma.
Leptomeningeal metastasis alters the composition of the CSF (FIG. 10A), including the growth factor amphiregulin (FIG. 10C). Cancer cell growth within the leptomeningeal space is improved in the presence of the C3aR in our models of leptomeningeal metastasis (FIG. 10B) after parenteral administration of C3a, serum amphiregulin is elevated within the CSF in mouse models.

Row | Compound | tumor growth within the leptomeninges (bioluminescent imaging) (MDA231-LeptoM cells; 10 mg/kg I.P. twice weekly) | leptomeningeal tumor growth (BLI) (HCC1954-LeptoM cells) | leptomeningeal tumor growth (BLI) (PC9-LeptoM cells) | leptomeningeal tumor growth (BLI) (LLC-LeptoM cells) | leptomeningeal tumor growth (BLI) (MDA231-LeptoM cells; MDA231 model, systemic treatment from Day 1, BLI on day 14) | survival (MDA231-LeptoM cells; MDA LeptoM model, 10 mg/kg I.P. twice weekly) | tight junctions between choroid plexus epithelial cells (claudin immunofluorescence) [1] | resistance across the monolayer (TEER) [2] | passage of dextrans from blood to CSF (C3aR) | amphiregulin within the CSF [3]
1 | O=C(NC1CCN(C(=O)CCc2cccnc2)CC1)C(c1ccccc1)C1CCCCC1 (stereo not drawn) [C3aR agonist, α-cyclohexyl-N-[1-[1-oxo-3-(3-pyridinyl)propyl]-4-piperidinyl]-benzeneacetamide] | accelerated |  |  |  |  |  |  |  |  | 
2 | N=C(N)NCCC[C@H](NC(=O)COCC(c1ccccc1)c1ccccc1)C(=O)O [SB290157, N2-[2-(2,2-diphenylethoxy)acetyl]-L-arginine, 2,2,2-trifluoroacetate] | slowed | less leptomeningeal tumor growth | less leptomeningeal tumor growth | less leptomeningeal tumor growth | less leptomeningeal tumor growth | survival benefit |  |  |  | 
3 | recombinant C3a: recombinant C3a, hydrolysis fragment of complement C3, ligand of the C3aR receptor |  |  |  |  |  |  | disorganization of tight junctions | reduced | increased | elevated
